Here are results for 6 molecules from publication PMC6691788, “Design and synthesis of phthalazine-based compounds as potent anticancer agents with potential antiangiogenic activity via VEGFR-2 inhibition” (Journal of Enzyme Inhibition and Medicinal Chemistry, 2019).

One data set relates to MCF-7. The data set can be described thus: In vitro cytotoxic activity, SRB assay. It is filed as cell-based. As to conditions: Homo sapiens, MCF7; MCF-7, 48h. The protocol:
(§1) In addition, compounds (12a, 12b, 12c, 16b, 16c and 17b) were evaluated against a third cell line (HepG-2) These first two cell lines were selected based on the sensitivity of the previously NCI-tested derivatives towards them amongst the 60 NCI panel. The growth inhibition is expressed as the median growth inhibitory concentration (IC50) which corresponds to the concentration required for 50% inhibition of cell viability and are provided in (Table S6 in supplementary material).
(§2) 5,000 cells in fresh medium were seeded in 96-well microlitre plates and left to attach for 24h. Cells were incubated with the tested compounds at concentration range from 0,1,2.5,5,10 µg/ml and incubation was continued for48h. After 48h treatment,the cells were fixed with 50µl cold 50% trichloroacetic acid (TCA )for 1h at 4 °C. Wells were then washed 5 times with water and stained for 30 min at room temperature with 50µl of 0.4%SRB dissolved in 1% acetic acid. The wells were then washed 4 times with 1% acetic acid. The plates were air dried and the dye was solubilized with 100µl/well of 10mM tris base (pH 10.5) for 5min on a shaker (Orbital Shaker OS 20,Boeco,Germany) at 1600 rpm. The optical density (O.D.)of each well was measured spectrophotometrically at 564 nm with an enzyme linked immunosorbent assay( ELIZA) micraplate reader (Tecan Sunrise,Austria).The mean back ground absorbance was subtracted automatically and mean values for each drug concentration was calculated.
(§3) The percentage of cell survival was calculated as follows:
(§4) Survival fraction =O.D.(treated cells)/O.D.(control cells)
(§5) The IC50 value (the concentration required to produce 50% inhibition of cell growth) was calculated using sigmodial dose response curve-fitting models (GraphPad,Prizm software incorporated). Each concentration was repeated 3 times.
(The SRB assay estimates cell density from bound dye.)

In another data set the test system is HepG-2. The data set can be described thus: In vitro cytotoxic activity, SRB assay. Format: cell-based. As to conditions: Homo sapiens, HepG2; HepG-2, 48h. The protocol: as §1, §2, §3, §4, §5
The subject of the next data set is HCT-116. The data set can be described thus: In vitro cytotoxic activity, SRB assay. The conditions noted are these: Homo sapiens; HCT-116, 48h. It is filed as cell-based. The protocol:
as §1, §2, §3, §4, §5

The target in the next data set is T1, VEGFR-2 tyrosine kinase (Homo sapiens, UniProt P35968).
T1 construct: purchased BPS Bioscience 40301
T1 sequence (P35968 20-1356): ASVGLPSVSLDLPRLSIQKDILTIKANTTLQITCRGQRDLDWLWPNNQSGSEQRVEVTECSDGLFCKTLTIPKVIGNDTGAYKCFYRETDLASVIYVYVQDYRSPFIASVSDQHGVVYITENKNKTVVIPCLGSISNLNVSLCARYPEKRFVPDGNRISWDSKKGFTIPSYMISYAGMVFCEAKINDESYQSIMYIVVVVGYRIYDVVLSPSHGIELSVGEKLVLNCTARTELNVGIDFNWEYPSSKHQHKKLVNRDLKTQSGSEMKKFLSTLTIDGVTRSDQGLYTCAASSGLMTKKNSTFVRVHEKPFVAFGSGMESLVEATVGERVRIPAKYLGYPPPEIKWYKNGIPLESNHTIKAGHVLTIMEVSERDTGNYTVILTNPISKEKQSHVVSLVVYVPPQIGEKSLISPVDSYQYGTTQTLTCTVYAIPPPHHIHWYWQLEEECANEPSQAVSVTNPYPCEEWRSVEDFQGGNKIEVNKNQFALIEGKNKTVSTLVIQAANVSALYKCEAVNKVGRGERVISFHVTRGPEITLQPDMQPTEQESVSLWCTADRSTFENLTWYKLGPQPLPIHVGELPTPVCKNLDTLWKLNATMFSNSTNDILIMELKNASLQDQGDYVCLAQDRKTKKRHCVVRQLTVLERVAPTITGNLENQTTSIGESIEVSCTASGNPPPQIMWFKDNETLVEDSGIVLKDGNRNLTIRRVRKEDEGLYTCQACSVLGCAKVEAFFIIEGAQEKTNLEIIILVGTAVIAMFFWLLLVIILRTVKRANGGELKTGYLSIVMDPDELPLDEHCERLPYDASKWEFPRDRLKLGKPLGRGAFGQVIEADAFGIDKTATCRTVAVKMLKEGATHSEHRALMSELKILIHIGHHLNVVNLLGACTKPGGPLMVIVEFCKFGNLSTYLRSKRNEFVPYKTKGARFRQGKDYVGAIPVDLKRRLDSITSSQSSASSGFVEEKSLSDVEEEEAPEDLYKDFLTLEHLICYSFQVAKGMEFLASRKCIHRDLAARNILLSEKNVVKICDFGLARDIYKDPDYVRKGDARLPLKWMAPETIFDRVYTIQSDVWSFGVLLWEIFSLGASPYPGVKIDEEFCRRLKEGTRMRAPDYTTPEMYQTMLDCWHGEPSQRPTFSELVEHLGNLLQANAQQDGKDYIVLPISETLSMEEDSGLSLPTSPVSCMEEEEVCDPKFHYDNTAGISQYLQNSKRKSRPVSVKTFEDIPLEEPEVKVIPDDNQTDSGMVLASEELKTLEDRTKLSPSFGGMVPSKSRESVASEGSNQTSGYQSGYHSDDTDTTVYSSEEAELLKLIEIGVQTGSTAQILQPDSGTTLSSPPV
The data set can be described thus: In vitro VEGFR-2 tyrosine kinase assay (BPS Bioscience). Format: biochemical. The conditions noted are these: for IC50: 10 μM ATP/0.2 mg/ml poly-Glu-Tyr; for inhibition at 10 µM: read-out: VEGFR-2 % inhibition, 10 μM concentration. The protocol:
The VEGFR tyrosine kinase assays were performed at BPS Bioscience (www.bpsbioscience.com). All the synthesised compounds representing the six series were evaluated for their ability to inhibit VEGFR-2 tyrosine kinase at single dose of 10 µM.
The VEGFR tyrosine kinase activity at single dose concentration of 10 μM was carried out by BPS Bioscience (www.bpsbioscience.com). VEGFR (BPS#40301) served as the enzyme source and Poly (Glu, Tyr) sodium salt, (4:1, Glu:Tyr) (Sigma#P7244) served as the standardized substrate & Kinase-Glo Plus Luminescence kinase assay kit (Promega#V3772). The IC50 determination was carried out where quality control testing is routinely performed on each of the targets to insure compliance to acceptable standards. ^33P-ATP was purchased from Perkin Elmer and ADP-Glo^TM was purchased from Promega. All other materials were of standard laboratory grade.
The VEGFR tyrosine kinase activity was performed using Kinase-Glo Plus luminescence kinase assay kit (Promega). It measures kinase activity by quantitating the amount of ATP remaining in solution following a kinase reaction. The luminescent signal from the assay is correlated with the amount of ATP present and is inversely correlated with the amount of kinase activity. The compounds were diluted to 100 μM in 10% DMSO and […] of the dilution was added to a […] reaction so that the final concentration of DMSO is 1% in all of reactions. All of the enzymatic reactions were conducted at 30 °C for 40 min. The 50 μl reaction mixture contains […], pH 7.4, […], 0.1 mg/ml BSA, 0.2 mg/ml Poly (Glu, Tyr) substrate, 10 μM ATP and VEGFR. After the enzymatic reaction, […] of Kinase-GloPlus Luminescence kinase assay solution (Promega) was added to each reaction and incubate the plate for 5 min at room temperature. Luminescence signal was measured using a BioTek Synergy 2 microplate reader. The protein kinase assays used to determine IC50 value were performed using ADP-GloTM assay kit from Promega which measures the generation of ADP by the protein kinase. Generation of ADP by the protein kinase reaction leads to an increase in luminescence signal in the presence of ADP-GloTM assay kit. The assay was started by incubating the reaction mixture in a 96-well plate at 30 °C for 30 min. After the 30 min incubation period, the assay was terminated by the addition of […] of ADP-GloTM Reagent (Promega). The 96 well plate was shaken and then incubated for 40 min at ambient temperature. […] of Kinase detection reagent was added, the 96-well reaction plate was then read using the ADP-Glo Luminescences Protocol on a GloMax plate reader (Promega: Catalog #E7031). Blank control was set up that included all the assay components except the addition of appropriate substrate (replace with equal volume of kinase assay buffer). The corrected activity for each protein kinase target was determined by removing the blank control value.
VEGFR activity assays were performed in duplicate at each concentration. The luminescence data were analyzed using the computer software, Graphpad Prism. The difference between luminescence intensities in the absence of VEGFR (Lut) and in the presence of VEGFR (Luc) was defined as 100% activity (Lut - Luc). […] IC50 determination for inhibitor against VEGFR was estimated by generating a graph of log inhibitor vs normalized response with variable using the Prism software.

The next data set relates to HUVEC. The data set can be described thus: In vitro HUVEC anti-proliferative assay (alamarBlue). The conditions noted are these: HUVEC proliferation, single dose 10 µM, 72 hours; for inhibition at 10 µM: Homo sapiens, read-out: % Cell inhibition. Format: cell-based, human. The protocol:
The assay was performed at single dose concentration of 10 µM, where HUVEC umbilical vein endothelial cells, human (Life Technologies # C-003-5C) served as the cells’ source, in Medium 200 (Life Technologies # M-200-500), with large vessel endothelial supplement (LVES) (Life Technologies # A14608-01) and Pen-step (Hyclone # SV30010). AlamarBlue (Life Technologies # DAL1025) was used as the fluorescent reagent.
HUVEC cells were cultured in Medium 200 with 2% LVES and 1% Pen-strep. To perform the proliferation assay, HUVEC cells were seeded at 5000 cells/ 50µl /well in a 96-well black clear-bottom tissue culture plate. Cells were incubated at 37°C and 5% CO2 overnight to allow them to recover and reattach.
Next day cells were treated with test compounds for 72 hours. After treatment, cell proliferation was measured by Fluorescent quantitation of alamarBlue reagent. The alamarBlue assay incorporates a fluorometric/colorimetric growth indicator based on detection of metabolic activity. Specifically, resazurin, the active ingredient in the alamarBlue reagent, is blue in color and virtually non-fluorescent. Upon entering cells, resazurin is reduced to resorufin, a compound that is red in color and highly fluorescent. Continued cell growth maintains a reduced environment, therefore increasing the overall fluorescence and color of the media surrounding cells. […] To perform the alamarBlue assay, 10 µl of alamarBlue reagent was added to each well and the plate was incubated at 37°C for an additional 2 hours. Fluorescence intensity was measured at an excitation of 530 nm and an emission of 590 nm using a BioTek Synergy^TM 2 microplate reader.
Cell proliferation assays were performed in triplicate at each concentration. The fluorescent intensity data were analyzed using the computer software, Graphpad Prism. In the absence of the compound, the fluorescent intensity (Ft) in each data set was defined as 100%. In the absence of cells, the fluorescent intensity (Fb) in each data set was defined as 0%. The percent cell in the presence of each compound was calculated according to the following equation: %cell = (F-Fb)/(Ft-Fb), where F= the fluorescent intensity in the presence of the compound, Fb= the fluorescent intensity in the absence of cells, and Ft = the fluorescent intensity in the absence of the compound.
(Resazurin is reduced to fluorescent resorufin, in cell work by metabolically active cells.)

In another data set the test system is VEGFR-2. As to conditions: cited from earlier work.
The next data set has as its system VEGFR-3. More on the design: method as in PMID 24565910. The conditions noted are these: cited from earlier work.

Like-named read-outs stand apart in the source and are kept apart here.

As for `O=C(Nc1ccc(Cl)cc1)Nc1ccc(Nc2nnc(Cl)c3ccccc23)cc1` [Compound 12b, 1–(4-Chlorophenyl)-3–(4-(4-chlorophthalazin-1-ylamino)phenyl)urea], the melting point lay in the range of 236 to 238 °C. Further, in the data set on MCF-7, half-maximal inhibition (IC50) was put at 155 µM. The molecule further displayed a 50% inhibitory concentration (IC50) in the data set with HepG-2 of 174 µM. The molecule further came in with an IC50 in the data set on HCT-116 of 174 µM. At VEGFR-2 tyrosine kinase, the IC50 stood at 4.4 µM and the inhibition at 10 µM stood at 70%. In the data set on HUVEC, the “% Cell growth” value was determined as 20.17% and the inhibition at 10 µM was determined as 79.8%.
As to `Clc1ccc(Nc2nnc(Cc3ccncc3)c3ccccc23)cc1` [Vatalanib (PTK-787) (I), vatalanib], the IC50 in the data set on VEGFR-2 (read-out: IC50 VEGFR-2) is […].
In turn, `O=C(Nc1ccc(Nc2nnc(Cl)c3ccccc23)cc1)Nc1ccc(Cl)c(C(F)(F)F)c1` [Compound 12c, 1–(4-Chloro-3-(trifluoromethyl)phenyl)-3–(4-(4-chlorophthalazin-1-ylamino)phenyl)-urea] showed a melting point of 187 to 189 °C. Also, in the data set with MCF-7, the IC50 is more than 1000 µM. Moreover, the half-maximal inhibitory concentration (IC50) in the data set with HepG-2 was more than 1000 µM. The molecule also registered an IC50 with HCT-116 of 724 µM. In addition, on VEGFR-2 tyrosine kinase, the IC50 was 2.7 µM and the inhibition at 10 µM amounted to 78%. Further, in the data set on HUVEC, the “% Cell growth” value amounted to 27.42% and the inhibition at 10 µM came out at 72.6%.
With `c1ccc(Cc2cnc(N3CCN(c4ncnc5ccccc45)CC3)nc2)cc1` [(VI)], the IC50 with VEGFR-2 (Figure 1, known VEGFR-2 kinase inhibitors, read-out: IC50) was 0.0034 µM.
Take `CNC(=O)c1cc(COc2nnc(Nc3ccc(Cl)cc3)c3ccoc23)ccn1` [Telatinib (V), telatinib]: the concentration for half-maximal inhibition (IC50) in the data set on VEGFR-3 was 0.004 µM; in the data set with VEGFR-2 (read-out: IC50 VEGFR-2), 0.006 µM.
The molecule `Clc1ccc(Nc2nnc(CNc3cccc(Cl)c3)c3ccccc23)cc1` [Compound 16b, N-(4-Chlorophenyl)-4-((3-chlorophenylamino)methyl)phthalazin-1-amine] had a melting point of 164 to 166 °C. In the data set on MCF-7, this molecule registered a 50% inhibitory concentration (IC50) of 91 µM. The same molecule showed an IC50 with HepG-2 of 77.6 µM. Further, in the data set with HCT-116, half-maximal inhibition (IC50) was put at 28.8 µM. Further, the inhibition at 10 µM on VEGFR-2 tyrosine kinase was found to be 21%.

What is called IC50 is the concentration that inhibits the measured activity by half. What is called melting point is the temperature of the solid-liquid transition. What is called inhibition is the percentage by which the read-out fell short of the control.
